The values that follow come from PMC8113459, “Selective inhibition of cullin 3 neddylation through covalent targeting DCN1 protects mice from acetaminophen-induced liver toxicity” (Nature Communications, 2021).

Molecules are shown by their SMILES.

In series [1] the test system is APAP-induced liver injury. The series can be described thus: APAP-induced liver injury: ROS assay in liver tissue. Type of series: in vivo, mouse. The note with it: G2: APAP 400 mg/kg, a single dose. How it is done: (§1) The in vivo studies were performed under animal protocols (PRO00007499) and (PRO00006638) approved by the Institutional Animal Care & Use Committee of the University of Michigan, in accordance with the recommendations in the Guide for the Care and Use of Laboratory Animals of the National Institutes of Health. C57BL/6 WT mice (~8 weeks, male, normal chow) were purchased from the Jackson Laboratory and randomly divided into eight groups (8–9 mice per group) treated (IP) as follows: phosphate-buffered saline vehicle once per day for 3 days (G1), APAP alone a single dose at 400 mg/kg on day 1 (G2), DI-1859 alone 25 mg/kg once per day for 3 days (G3), DI-1859 alone 50 mg/kg once per day for 3 days (G4), pretreatment (1 day before the APAP administration) with DI-1859 at 25 mg/kg once per day for 3 days followed with APAP at 400 mg/kg on day (G5), pretreatment (1 day before the APAP administration) with DI-1859 at 50 mg/kg once per day for 3 days followed with APAP at 400 mg/kg on day (G6), APAP a single dose at 400 mg/kg (3 h before the first DI-1859 administration) followed with DI-1859 at 25 mg/Kg once per day for 3 days (G7), and APAP a single dose at 400 mg/kg (3 h before the first DI-1859 administration) followed with DI-1859 at 50 mg/Kg once per day for 3 days (G8).
(§2) To induce acute liver injury, animals received PBS or APAP (400 mg/kg, sigma, A7085) through I.P. injection at 12 p.m. and were sacrificed 48 h afterward. To examine the protective effect of DI-1859 (groups 5 and 6), animals were I.P. injected with compound for 3 consecutive days (9 a.m. on each day, starting 1 day before APAP administration). To examine the restorative effect of DI-1859 (groups 7 and 8), animals were I.P. injected with compound 3 h after APAP administration followed by two additional treatments (9 a.m. on the next 2 days). Body weight and blood glucose level measurement, along with blood sample collection, were performed at 12 p.m. on each day.
Liver samples were homogenized in a lysis buffer and mixed with a dichlorofluorescein diacetate fluorescent probe (DCF, Sigma, D6883) to a final probe concentration of 5 µM for 1 h at 37 °C. DCF fluorescence was measured using a BioTek Synergy 2 Multi-Mode Microplate Reader (485 nm excitation and 527 nm emission).

Series [2] deals with APAP-induced liver injury. The experiment in a line: APAP-induced liver injury: alanine aminotransferase (ALT) level. The conditions noted are these: single dose 400 mg/kg, IP. Type of series: in vivo, mouse. As to the method: as §1, §2
Blood glucose levels were determined using glucometers (Bayer Corp., Pittsburgh, PA). Plasma ALT activity was measured using an ALT reagent set (Pointe Scientific Inc., Canton, MI).

The target in series [3] is DCN1 (Homo sapiens, UniProt Q96GG9). The series can be described thus: Intact-protein mass spectrometric analysis of covalent complex formation, Method A. Type of series: binding. The conditions noted are these: for Percentage of the formation of covalent complex with DCN1 protein: 37 °C. The text has this:
MassHunter Qualitative Analysis software (Agilent) was used to analyze the data. Intact protein masses were obtained using the maximum entropy deconvolution algorithm. The mass spectrometry data in Supplementary Figs. 1–11 were generated by Method A.

Sequence of DCN1 (Q96GG9 58-259 limits assumed): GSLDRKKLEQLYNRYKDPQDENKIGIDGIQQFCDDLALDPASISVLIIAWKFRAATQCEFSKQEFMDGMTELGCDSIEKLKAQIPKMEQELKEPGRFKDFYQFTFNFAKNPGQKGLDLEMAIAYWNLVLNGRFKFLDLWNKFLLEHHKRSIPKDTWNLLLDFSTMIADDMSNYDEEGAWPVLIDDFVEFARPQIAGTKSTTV

Turning to `CC(=O)Nc1ccc(O)cc1` [APAP, acetaminophen], in series [1], the “ROS level in mouse liver tissue, mean” value is listed as 12.4435 A.U./ug and the “ROS level normalised to the mean of G1 (vehicle), mean” value amounted to 1.645. In series [2], the “hepatotoxicity in mice” value is recorded as “induced severe hepatotoxicity”.

As for `CCC(=O)N[C@@H](Cc1nc2ccc(C(C)C)cc2s1)C(=O)N[C@H](CNC(=O)/C=C/CN(C)C)C1CCCCC1` [compound 5], the “covalent complex formation / reaction kinetics with DCN1 protein (in words)” value in series [3] was “reaction kinetics similar to that of 3”. The “Percentage of the formation of covalent complex with DCN1 protein” value in series [3] (10 min incubation, 1.2-fold excess inhibitor) is recorded as 0%; in series [3] (60 min (1 h) incubation), 0%; in series [3] (180 min (3 h) incubation), 2%; in series [3] (720 min (12 h) incubation), 30%.
